Data set [1] deals with T1, NAD-dependent protein deacetylase sirtuin-1 (Homo sapiens) (UniProt Q96EB6).
T1 sequence (whole entry): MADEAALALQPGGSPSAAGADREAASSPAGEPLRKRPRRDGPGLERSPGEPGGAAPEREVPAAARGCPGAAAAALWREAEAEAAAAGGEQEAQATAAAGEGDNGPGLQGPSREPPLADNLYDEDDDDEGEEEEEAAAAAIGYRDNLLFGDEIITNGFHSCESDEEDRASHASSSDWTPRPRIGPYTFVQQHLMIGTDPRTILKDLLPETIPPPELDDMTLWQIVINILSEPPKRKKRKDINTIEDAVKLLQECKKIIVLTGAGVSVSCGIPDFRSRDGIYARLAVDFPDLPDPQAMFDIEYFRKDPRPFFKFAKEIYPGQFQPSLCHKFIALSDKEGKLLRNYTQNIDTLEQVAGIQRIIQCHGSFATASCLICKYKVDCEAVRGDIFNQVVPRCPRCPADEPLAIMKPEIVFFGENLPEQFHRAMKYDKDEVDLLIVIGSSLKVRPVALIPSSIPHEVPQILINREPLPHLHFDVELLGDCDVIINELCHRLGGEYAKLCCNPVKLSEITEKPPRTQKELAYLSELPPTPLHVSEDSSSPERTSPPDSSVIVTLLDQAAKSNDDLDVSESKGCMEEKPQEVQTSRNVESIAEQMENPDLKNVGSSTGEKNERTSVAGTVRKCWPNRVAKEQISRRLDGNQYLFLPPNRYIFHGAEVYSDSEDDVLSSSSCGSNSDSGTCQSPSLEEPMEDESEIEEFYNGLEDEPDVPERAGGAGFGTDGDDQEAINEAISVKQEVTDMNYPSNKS
The experiment in a line: Activation of SIRT1 (unknown origin) by mass spectrophotometric analysis.

Data set [2] can be described thus: Octanol-water apparent partition coefficient, log D of the compound at pH 7.4 after 24 hrs by shake flask method. The data set is classed as physicochemical.
Data set [3] addresses T1, NAD-dependent protein deacetylase sirtuin-1 (Homo sapiens). Put plainly: Activation of SIRT1 in human U2OS cells assessed as increase in ALP activity using p-NPP as substrate measured after 30 mins by colorimetric method. The data set is classed as cell-based.
For data set [4] the target is unchanged. Put plainly: Activation of SIRT1 in human U2OS cells assessed as increase in deacetylation of doxorubicin-induced acetylated p53 at 0.01 to 1 uM by Western blot analysis. The data set is classed as cell-based.

The source made the active and inactive calls. The rule behind the calls is not given here. A value given as a limit tells only on which side of the number the result lay.

Regarding `Cn1nc(-c2ccc(C(=O)N[C@H]3CC[C@H](O)CC3)cc2)c2cc(NCc3cc(F)ccc3S(C)(=O)=O)ccc21`, in data set [1], the EC150 is 0.95 µM.

Consider `Cn1nc(-c2cc3ccccc3s2)c2cc(NCc3cc(F)ccc3S(C)(=O)=O)ccc21`, for which the EC150 in data set [1] worked out at 1.52 µM.

As for `Cn1nc(-c2ccc3ccccc3c2)c2cc(NCc3cc(F)ccc3S(C)(=O)=O)ccc21`, the EC150 in data set [1] was found to be 2.88 µM.

As for `Cc1cc(CNc2ccc3c(c2)c(-c2ccc(C(=O)N[C@H]4CC[C@H](O)CC4)cc2)nn3C)c(S(C)(=O)=O)cc1F`, in data set [1], the EC150 was more than 20 µM.

In data set [1], `CCCS(=O)(=O)c1ccccc1CNc1ccc2c(c1)c(-c1ccc(C(=O)N[C@H]3CC[C@H](O)CC3)cc1)nn2C` registered an EC150 of 4.54 µM.

The compound `Cc1cc(S(C)(=O)=O)c(CNc2ccc3c(c2)c(-c2ccc(C(=O)N[C@H]4CC[C@H](O)CC4)cc2)nn3C)cc1F` had an EC150 in data set [1] of 0.4 µM. For the same compound, the logD at 24 h in data set [2] worked out at 1.41.

For `Cn1nc(-c2ccc(C(=O)NCC3CCCO3)cc2)c2cc(NCc3cc(F)ccc3S(C)(=O)=O)ccc21` (configuration not stated), the EC150 in data set [1] amounted to 1.46 µM.

Compound `COCCS(=O)(=O)c1ccccc1CNc1ccc2c(c1)c(-c1ccc(C(=O)N[C@H]3CC[C@H](O)CC3)cc1)nn2C` registered an EC150 in data set [1] of 7.23 µM.

`CNC(=O)c1ccc(-c2nn(C)c3ccc(NCc4cc(F)ccc4S(C)(=O)=O)cc23)cc1` registered an EC150 in data set [1] of 2.92 µM.

For `Cn1nc(-c2ccc(C(=O)N[C@H]3CC[C@H](O)CC3)cc2)c2cc(NCc3cc(F)c(F)cc3S(C)(=O)=O)ccc21`, in data set [3], the concentration for an effect of 30% (EC30) is 0.65 nM. The outcome in data set [4] was Active. This compound also showed an EC150 in data set [1] of 0.4 µM. Also, in data set [2], the logD at 24 h was 1.37.

For the compound `Cn1nc(-c2ccc(C(=O)NCCc3ccn[nH]3)cc2)c2cc(NCc3cc(F)ccc3S(C)(=O)=O)ccc21`, in data set [1], the EC150 is 1.36 µM.

As for `CCS(=O)(=O)c1ccccc1CNc1ccc2c(c1)c(-c1ccc(C(=O)N[C@H]3CC[C@H](O)CC3)cc1)nn2C`, in data set [1], the EC150 came out at 2.4 µM.

On to `Cn1nc(-c2cnc3ccccc3c2)c2cc(NCc3cc(F)ccc3S(C)(=O)=O)ccc21`, for which, in data set [1], the EC150 was 1.49 µM.

As a reminder, the logD is the decadic logarithm of the distribution of all forms, ionised or not, between an organic phase and buffer at a given pH. In general, EC30 refers to the concentration at which the effect reaches the 30% level.
